Assay [1] relates to human neutrophils. The assay can be described thus: Citrullinated histone H3 (CitH3) NET induction in PMA-stimulated human neutrophils. The settings on record: for NET induction, measured as CitH3 staining: drugs 10, 2, 0.4, 0.08 μM or GSK484 10 μM for 1 h, then 1 μM PMA 3 h, FIGS. 1A and 5D. The format is cell-based. The protocol:
FIGS. 1A-H. Class I/II HDACs drive NET formation • (A and B) Freshly purified human (A) or mouse (B) neutrophils were treated with the indicated HDAC inhibitors at different doses (10, 2, 0.4, 0.08 μM), or with GSK484 (10 μM), for 1 h and then stimulated with 1 μM PMA for 3 h. Cells were fixed and stained with anti-citrullinated histone H3 (CitH3) antibody. NETosis induction was measured as the level of anti-CitH3 fluorescent signal. PMA alone represents 100% of NET induction. “-”: Cells treated with the highest dose of the indicated drug but not activated with PMA. • (C and D) Human neutrophils were treated, or not, with ricolinostat or GSK484 and then stimulated with 1 μM PMA. NETosis induction was measured as area of nuclei stained with DAPI. (C) 3D reconstruction of nuclei in each treatment (grid size 7.8 μm). (D) Quantification of DAPI signal from multiple fields of view (D) (n=9 for unstimulated, not pretreated with any drug [NT] and ricolinostat, n=7 for GSK484). • (E and F) Human neutrophils were treated as in (C-D), and immunoblot analysis of the indicated proteins was performed. Relative quantification of band intensity was analyzed with ImageJ software (F). White violins plots depict the quantification of histone H3 acetylation; red violin plots depict the quantification of histone H3 citrullination. Immunoblot in E is representative of four independent experiments. Gasdermin D NT, gasdermin D N terminal; pMLKL, phospho-MLKL. • (G) Human (left) or murine (right) neutrophils were treated, or not, with ricolinostat (10 μM) and then stimulated with 1 μM PMA for 3 h. ROS production was measured by luminescence with luminol-HRP. Histograms represent the total amount of ROS produced overtime. • (H) Murine neutrophils were treated, or not, with ricolinostat (10 μM) and then stimulated with fluorescent E. coli at the indicated multiplicity of infection (MOI) for 1 h. The histogram represents the percentage of neutrophils positive for E. coli staining. Graphs show mean±SEM. Statistics were calculated using one-way ANOVA (A, B, D) and two-way ANOVA (F, G, H) (*p<0.05; **p<0.01; ****p<0.0001. n.s., not significant). Statistics refers to the comparison with neutrophils stimulated with PMA alone (A, B). Gray stars represent comparison of all experimental groups with the unstimulated control, and black stars represent comparison between drug-treated groups and cells treated with PMA only (NT) (D). See also FIGS. 5A-J.
FIGS. 5A-J. Class I/II HDACs drive NET formation. • A) Quantification of extracellular DNA released by neutrophils treated, or not, with 1 μM GSK484 for 1 h and then stimulated with 1 μM PMA for 4 hours. Unstimulated, neutrophils not treated with drugs were used as a control. • B) Freshly purified human neutrophils were treated with the indicated HDAC inhibitors at different doses (0.08, 0.4, 2 and 10 μM) for 1 hour. Extracellular DNA release was assessed in the supernatant 3 hours after PMA stimulation. The dotted line represents the amount of DNA released from neutrophils treated with PMA alone. “-”: cells treated with the highest dose of the indicated drug but not activated with PMA. • C) Freshly purified human neutrophils were stimulated for 1 h, 3 h or 5 h. Cells were fixed and stained with an anti-CitH3 antibody. NETosis induction was measured as level of anti-CitH3 fluorescent signal. 5h-PMA treatment represents 100% NET induction. • D) Representative images of freshly isolated human neutrophils treated or not with 10 μM of the indicated drugs and stimulated with 1 μM PMA for 3 hours. Cells were fixed and then stained for CitH3 (red) and nuclei (blue). Scale bar=100 μm. • E) Murine neutrophils were treated with ricolinostat or GSK484 and then stimulated with […] for 3 hours. NET induction was measured as in (C). […]

For assay [2], the system named is human neutrophils. The experiment in a line: Immunoblot of PMA-treated human neutrophils (cell death markers, histone H3 acetylation and citrullination). The format is cell-based. The note with it: for PMA-induced gasdermin D (GSDMD) cleavage: 1 μM PMA; for PMA-induced gasdermin D (GSDMD) cleavage / activation of apoptosis or necroptosis: immunoblot FIG. 1E; for activation of apoptosis or necroptosis: PMA-treated cells exposed to drug; for H3 citrullination: compared with cells treated with PMA only.

`COc1cc(C(=O)N2CC[C@@H](O)[C@@H](N)C2)cc2nc(-c3cc4ccccc4n3CC3CC3)n(C)c12` [GSK484]: the “NET induction, measured as CitH3 staining” value in assay [1] is listed as “dramatically reduced NET induction”. In assay [2], the “PMA-induced gasdermin D (GSDMD) cleavage” value is “not altered” and the “activation of apoptosis or necroptosis” value was “excluded the activation of apoptosis or necroptosis”. In assay [2] (FIGS. 1E and 1F), the H3 citrullination entry was “completely abrogated”.
For the compound `O=C(CCCCCCNC(=O)c1cnc(N(c2ccccc2)c2ccccc2)nc1)NO` [ricolinostat], the “NET formation (level of CitH3), two independent donors” value in assay [1] (10, 2, 0.4, 0.08 μM for 1 h, then 1 μM PMA, FIGS. 5H, 5I) is given as “inhibited NET formation to a comparable extent”. Besides, the “NETosis (anti-CitH3 signal), comparison of class I/IIb and class IIb selective inhibitors” value in assay [1] (drugs 10, 2, 0.4, 0.08 μM 1 hour, then 1 μM PMA 3 hours, FIG. 5F) is given as “class I/IIb HDAC inhibition prevented NETosis”. Moreover, in assay [1], the “NET induction, measured as CitH3 staining” value was “prevented NET release in a dose-dependent manner with an efficacy comparable with GSK484”. In addition, in assay [2], the “PMA-induced gasdermin D (GSDMD) cleavage” value is “not altered” and the “activation of apoptosis or necroptosis” value is recorded as “excluded the activation of apoptosis or necroptosis”. Also, in assay [2] (FIGS. 1E and 1F), the H3 citrullination result is listed as “significantly decreased”. For the same compound, the “histone H3 acetylation” value in assay [2] (untreated as well as PMA-treated cells, FIGS. 1E and 1F) is reported as “boosted”.
